Common to all, as to experiment: NCI tumour cell line growth inhibition, 48 h
The test system of experiment [1] is HL-60(TB) leukemia.
For experiment [2], the system named is U251 CNS.
The test system of experiment [3] is EKVX NSCLC.
The subject of experiment [4] is SK-MEL-28 melanoma.
Experiment [5] concerns T-47D breast.
The subject of experiment [6] is CAKI-1 renal.
Experiment [7] has as its system UACC-62 melanoma.
For experiment [8], the system named is SW-620 colon.
For experiment [9], the system named is OVCAR-3 ovarian.
Experiment [10] deals with RXF 393 renal.

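Values below derive from 48-hour exposures of cells grown in 96-well plates, with endpoints linearly interpolated between the two concentrations bracketing the appropriate inhibition level. TGI: total growth inhibition.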 Where a SMILES comes first, the peptide text is derived from it. The star is where a group is joined. Boc = CC(C)(C)OC(=O)*; Bn = c1ccc(C*)cc1 A value given as a limit tells only on which side of the number the result lay.

Consider `COc1cc(OC)cc(Oc2nc3ccccc3nc2C(F)(F)F)c1`, for which the TGI in [1], in experiment [2], in [3], in [4], in experiment [5] and in experiment [6] was more than 100 µM throughout. The TGI in [7], in [8], in experiment [9] and in experiment [10] was more than 100 µM throughout.
Regarding `CO/N=C(\C(=O)OC(=NC1CCCCC1)NC1CCCCC1)c1csc(NC(c2ccccc2)(c2ccccc2)c2ccccc2)n1`, the TGI in [1], in experiment [2], in [3], in experiment [4], in experiment [5] and in experiment [6] was more than 10 µM each time. Also, the TGI in experiment [8], in [9] and in experiment [10] was more than 10 µM throughout.
Turning to `CN1CCc2c([nH]c3ccccc23)C1`, the TGI in [1], in experiment [2], in [3], in experiment [4], in [5] and in experiment [6] was more than 100 µM in each case. The TGI in experiment [7], in experiment [8], in experiment [9] and in experiment [10] was more than 100 µM throughout.
With `Brc1ccc2[nH]cc(-c3csc(-c4c[nH]c5ccccc45)n3)c2c1`, the TGI in experiment [1] was 14.2 µM; in experiment [2], 8.64 µM; in [3], 12 µM; in [4], 15.3 µM; in experiment [5] it was 26.9 µM; in [6] it was 9.2 µM. Besides, the TGI is more than 22.5 µM in [7], 8.23 µM in experiment [8], 11.8 µM in [9] and 11.2 µM in [10].
As to `CC1=C(C)CC2C(=O)N(c3cc(C(C)(C)C)ccc3C(C)(C)C)C(=O)C2C1` (stereo not drawn), the TGI in experiment [1], in experiment [2], in [3], in experiment [4], in experiment [5] and in experiment [6] was more than 100 µM throughout. Also, the TGI in [7] was 31.8 µM; in experiment [8], more than 100 µM; in experiment [9] it was more than 100 µM; in experiment [10], 74.9 µM.
With `O=[N+]([O-])c1ccc2[nH]c(=S)[nH]c(=S)c2c1`, the TGI in experiment [1], in [2], in experiment [3], in [4], in [5] and in experiment [6] was more than 100 µM each time. In addition, the TGI in experiment [7], in experiment [9] and in [10] was more than 100 µM throughout.
Take `COc1cc(C2c3cc4c(cc3OC(N3CCCCC3)C2C)OCO4)cc(OC)c1O` (stereo not drawn): the TGI was 15.4 µM in [1]; more than 64.6 µM in [2]; more than 83.4 µM in [3]; 27.3 µM in [4]; more than 60.2 µM in [5]; 25.2 µM in experiment [6]. In addition, the TGI was 21.9 µM in [8], 19.8 µM in [9] and more than 100 µM in [10].
In the case of `CCOC1(OCC)C2C=CC1C(COS(=O)(=O)c1ccc(C)cc1)C2COS(=O)(=O)c1ccc(C)cc1` (stereo not drawn), the TGI in [1] is 42.4 µM; in experiment [2], more than 100 µM; in experiment [3], more than 100 µM; in [4], more than 100 µM; in [5] it was 85.1 µM; in [7], more than 100 µM. Moreover, the TGI in [8], in experiment [9] and in experiment [10] was more than 100 µM in each case.
In the case of `O=C1Sc2cc3ccccc3cc2C(=O)Sc2ccc(Br)cc21`, the TGI in experiment [1] was more than 100 µM; in experiment [2] it was 5.27 µM; in [3], 28.1 µM; in [4], 9.79 µM; in [5] it was 23.8 µM; in experiment [6], 14.8 µM. Moreover, the TGI in [7] turned out to be 10.5 µM; in [8], 14.2 µM; in [9], 5.21 µM; in experiment [10] it was 7.88 µM.
With `Cc1[nH]c(=O)nc2nc3ccc(Cl)cc3c(NCCNCCO)c12`, the TGI was more than 100 µM in [1]; 21.2 µM in experiment [2]; 23.8 µM in experiment [3]; 31.8 µM in experiment [4]; 23.1 µM in [5]; 25.4 µM in [6]. For the same compound, the TGI in experiment [7] is 24.3 µM; in experiment [8] it was 19.6 µM; in experiment [9], 25.2 µM; in [10] it was 28.5 µM.
`O=[N+]([O-])c1ccc(CN(CCCl)OCCCl)cc1`: the TGI in experiment [1], in experiment [2], in [3], in [4], in experiment [5] and in experiment [6] was more than 100 µM throughout. The TGI in [7], in experiment [8], in experiment [9] and in [10] was more than 100 µM in each case.
As for `CCCNC(=O)NNC(=O)c1c[nH]c2nc(C)ccc2c1=O`, the TGI in experiment [1], in [2], in experiment [3], in experiment [4], in experiment [5] and in experiment [6] was more than 100 µM throughout. Also, the TGI in experiment [7], in [8], in [9] and in experiment [10] was more than 100 µM in each case.
Take `O=C(Nc1ccccc1)c1cc(S(=O)(=O)NC2=NC(c3ccccc3)c3cc(Cl)ccc3N2)c(SSc2cc(Cl)c(C(=O)Nc3ccccc3)cc2S(=O)(=O)NC2=NC(c3ccccc3)c3cc(Cl)ccc3N2)cc1Cl` (stereo not drawn): the TGI in experiment [1] is more than 53.9 µM; in experiment [2] it was more than 100 µM; in experiment [3], more than 100 µM; in experiment [4], more than 100 µM; in experiment [5] it was more than 100 µM; in experiment [6], more than 100 µM. Moreover, the TGI in experiment [7], in experiment [8], in [9] and in [10] was more than 100 µM throughout.
Consider `COC(=O)C(CC(C)C)NC(=O)C(C)NC(=O)C(Cc1ccc(OCc2ccccc2)cc1)NC(=O)C(COCc1ccccc1)NC(=O)OC(C)(C)C` (stereo not drawn) (Boc-S(Bn)Y(Bn)AL-OMe; configuration not given here), for which the TGI in experiment [1], in [2], in [3], in [4], in experiment [5] and in experiment [6] was more than 100 µM each time. Moreover, the TGI in experiment [7], in experiment [8], in experiment [9] and in experiment [10] was more than 100 µM throughout.
For `COc1ccc(C2SC(N)=Nc3c2c(C)nn3C(=O)c2ccncc2)cc1OC` (stereo not drawn), the TGI in experiment [1], in experiment [2], in experiment [3], in experiment [4], in [5] and in experiment [6] was more than 10 µM in each case. Moreover, the TGI in experiment [7], in [8], in experiment [9] and in experiment [10] was more than 10 µM throughout.
For `COC(=O)C1=C(OC(=O)/C(=C/c2ccc(Cl)cc2)c2ccc(Cl)cc2)C(C(=O)OC)[C@@]2(O)[C@@H](C(=O)OC)[C@H](C)C[C@@H]1[C@@H]2C(=O)OC` (stereo partly drawn), the TGI in experiment [1], in experiment [2], in experiment [3], in experiment [4], in [5] and in experiment [6] was more than 100 µM throughout. Moreover, the TGI in experiment [7], in experiment [8], in experiment [9] and in experiment [10] was more than 100 µM in each case.
Turning to `CC(=O)OC(OC(C)=O)c1ccc2ccc3cccc4ccc1c2c34`, the TGI is more than 100 µM in experiment [1]; 41.8 µM in experiment [2]; 80.6 µM in experiment [3]; 68 µM in experiment [5]; 32.5 µM in experiment [6]; 27.3 µM in experiment [7]. Moreover, the TGI in [9] is more than 100 µM; in [10], 25.3 µM.
For the compound `CCCC(=O)NC(NC1CCCCC1)(C(=O)OCC)C(F)(F)F` (stereo not drawn), the TGI in [1], in experiment [2], in experiment [3], in [4], in experiment [5] and in [8] was more than 100 µM each time. In addition, the TGI in experiment [9] and in [10] was more than 100 µM throughout.
As to `Cc1ccc(/C=N/Nc2cc(C)c3cccc(C)c3n2)s1`, the TGI in experiment [2] is more than 100 µM; in experiment [3], 38.2 µM; in [4], more than 100 µM; in experiment [5] it was more than 100 µM; in experiment [6], more than 100 µM; in experiment [7], 43.6 µM. For the same compound, the TGI is more than 100 µM in experiment [8], 22.2 µM in experiment [9] and 32.8 µM in [10].
As to `COc1cc(Nc2nc3ccccc3nc2C(=O)O)cc(OC)c1OC`, the TGI in experiment [1] was more than 100 µM; in [2], more than 100 µM; in [3], more than 100 µM; in experiment [4], more than 100 µM; in experiment [5], more than 100 µM; in [6], 76.4 µM. Moreover, the TGI in experiment [8], in experiment [9] and in [10] was more than 100 µM in each case.
As for `Nc1ccc2c(c1)C(=O)N1CCC[C@H]1C(=O)N2`, the TGI in experiment [2], in [3], in experiment [4], in [5], in experiment [6] and in [7] was more than 100 µM each time. The TGI in [8], in experiment [9] and in experiment [10] was more than 100 µM each time.
As to `C=CCn1c(N)c(C#N)c(C#N)c1-c1ccccc1`, the TGI in [1], in experiment [2], in [3], in experiment [5], in [6] and in [7] was more than 100 µM each time. Moreover, the TGI in experiment [8], in [9] and in experiment [10] was more than 100 µM each time.
As for `O=c1[nH]cnc2c1cnn2Cc1cn(CCCCO)nn1`, the TGI in experiment [2], in experiment [3], in experiment [4], in [5], in [6] and in [7] was more than 100 µM throughout. The TGI in experiment [8], in [9] and in [10] was more than 100 µM in each case.
As for `NC(N)=NCCN1CC2CCC(CC2)C1`, the TGI in experiment [2], in experiment [3], in experiment [4], in experiment [5], in experiment [6] and in experiment [7] was more than 100 µM throughout. Further, the TGI in experiment [8], in [9] and in [10] was more than 100 µM each time.
Take `CC1CC(OP(=O)(OCc2ccccc2)OCc2ccccc2)[C@@H](OCc2ccccc2)C(OCc2ccccc2)C1OCc1ccccc1` (stereo partly drawn): the TGI in experiment [1], in experiment [2], in [3], in [4], in experiment [5] and in experiment [6] was more than 100 µM in each case. Besides, the TGI was more than 100 µM in [7], more than 100 µM in [8] and 9.8 µM in experiment [10].
As to `CC1(C)C(C#N)C1C1=C(N2CCOCC2)[C@]2(C)C(OC(=O)c3ccccc3)CC[C@@H]2C1` (stereo partly drawn), the TGI in experiment [2], in [3], in experiment [4], in experiment [5], in experiment [6] and in experiment [7] was more than 100 µM each time. The TGI in experiment [8], in [9] and in experiment [10] was more than 100 µM each time.
Take `N#CC1C(=S)NC(c2ccccc2)=CC12CCCCC2` (stereo not drawn): the TGI is 52.1 µM in experiment [1]; more than 100 µM in [2]; 44.6 µM in experiment [3]; 95.5 µM in experiment [4]; 31.1 µM in experiment [5]; more than 100 µM in experiment [6]. For the same compound, the values for the TGI in [7], in experiment [8] and in [10] were 42.7 µM, more than 100 µM and more than 100 µM, respectively.

The record behind these values is PubChem BioAssay (NCI).
